Measurements taken from the NIST ThermoML archive (doi:10.1021/acs.jced.8b00635).
Numbers after ± are expanded uncertainties.

Assay: activity coefficient (dimensionless); of the first substance listed, at infinite dilution; xn = mol fraction of the nth substance listed
Settings: 101.33 kPa, Liquid, Chromatography, x1 = 0

| SMILES | activity coefficient (323.15 K) | activity coefficient (333.15 K) | activity coefficient (343.15 K) | activity coefficient (353.15 K) | activity coefficient (363.15 K) | activity coefficient (373.15 K) |
| --- | --- | --- | --- | --- | --- | --- |
| CCCCCCCCCC [decane] + CCCCC(CC)CN(CC(CC)CCCC)C(=O)C(C)C | 26.4 ± 2.8 | 22.7 ± 2.4 | 18.3 ± 1.9 | 15.2 ± 1.6 | 12.2 ± 1.3 | 9.89 ± 1 |
| CCCCCC(C)=O [2-heptanone] + CCCCC(CC)CN(CC(CC)CCCC)C(=O)C(C)C | 13.8 ± 1.4 | 10.6 ± 1.1 | 8.16 ± 0.86 | 6.2 ± 0.65 | 5 ± 0.53 | 4.04 ± 0.42 |
| C=CCCCC [hex-1-ene] + CCCCC(CC)CN(CC(CC)CCCC)C(=O)C(C)C | 1.77 ± 0.18 | 1.37 ± 0.14 | 1.17 ± 0.12 | 0.957 ± 0.097 | 0.789 ± 0.081 | 0.678 ± 0.071 |
| c1ccccc1 [benzene] + CCCCC(CC)CN(CC(CC)CCCC)C(=O)C(C)C | 2.56 ± 0.27 | 2 ± 0.21 | 1.65 ± 0.17 | 1.37 ± 0.14 | 1.15 ± 0.12 | 0.954 ± 0.097 |
| C=O [methanal] + CCCCC(CC)CN(CC(CC)CCCC)C(=O)C(C)C | 0.056 | 0.052 | 0.048 | 0.044 | 0.041 | 0.037 |
| C=CCCCCC [1-heptene] + CCCCC(CC)CN(CC(CC)CCCC)C(=O)C(C)C | 4.02 ± 0.42 | 2.89 ± 0.3 | 2.31 ± 0.24 | 1.8 ± 0.19 | 1.25 ± 0.13 | 0.974 ± 0.099 |
| Cc1ccc(C)cc1 [1,4-dimethylbenzene] + CCCCC(CC)CN(CC(CC)CCCC)C(=O)C(C)C | 11.6 ± 1.2 | 9.01 ± 0.95 | 6.9 ± 0.73 | 5.2 ± 0.55 | 3.75 ± 0.4 | 2.89 ± 0.3 |
| C=CCCCCCC [oct-1-ene] + CCCCC(CC)CN(CC(CC)CCCC)C(=O)C(C)C | 7.52 ± 0.79 | 6.09 ± 0.64 | 4.86 ± 0.51 | 3.76 ± 0.4 | 2.94 ± 0.31 | 2.21 ± 0.23 |
| CCCCc1ccccc1 [butylbenzene] + CCCCC(CC)CN(CC(CC)CCCC)C(=O)C(C)C | 24.4 ± 2.6 | 20.7 ± 2.2 | 17.5 ± 1.8 | 15 ± 1.6 | 12.5 ± 1.3 | 10.6 ± 1.1 |
| C1CCCCC1 [cyclohexane] + CCCCC(CC)CN(CC(CC)CCCC)C(=O)C(C)C | 2.77 ± 0.29 | 2.15 ± 0.23 | 1.74 ± 0.18 | 1.41 ± 0.15 | 1.18 ± 0.12 | 0.966 ± 0.098 |
| CCCC(=O)CC [3-hexanone] + CCCCC(CC)CN(CC(CC)CCCC)C(=O)C(C)C | 8.64 ± 0.91 | 6.42 ± 0.68 | 4.88 ± 0.51 | 3.74 ± 0.39 | 2.86 ± 0.3 | 2.15 ± 0.23 |
| CCCCCCC [heptane] + CCCCC(CC)CN(CC(CC)CCCC)C(=O)C(C)C | 4.37 ± 0.46 | 3.49 ± 0.37 | 2.78 ± 0.29 | 2.32 ± 0.24 | 2.02 ± 0.21 | 1.71 ± 0.18 |
| CCCCCCCC [octane] + CCCCC(CC)CN(CC(CC)CCCC)C(=O)C(C)C | 11.9 ± 1.3 | 8.35 ± 0.88 | 6.04 ± 0.64 | 4.54 ± 0.48 | 3.36 ± 0.35 | 2.63 ± 0.28 |
| ClC(Cl)(Cl)Cl [tetrachloromethane] + CCCCC(CC)CN(CC(CC)CCCC)C(=O)C(C)C | 1.94 ± 0.2 | 1.6 ± 0.17 | 1.22 ± 0.13 | 0.935 ± 0.095 | 0.727 ± 0.076 | 0.581 ± 0.062 |
| CC#N [acetonitrile] + CCCCC(CC)CN(CC(CC)CCCC)C(=O)C(C)C | 1.47 ± 0.15 | 1.21 ± 0.12 | 1.03 ± 0.1 | 0.861 ± 0.088 | 0.718 ± 0.075 | 0.568 ± 0.061 |
| Cc1ccccc1 [toluene] + CCCCC(CC)CN(CC(CC)CCCC)C(=O)C(C)C | 5.11 ± 0.54 | 4.25 ± 0.45 | 3.25 ± 0.34 | 2.5 ± 0.26 | 1.88 ± 0.2 | 1.46 ± 0.15 |
| Cc1cccc(C)c1 [1,3-dimethylbenzene] + CCCCC(CC)CN(CC(CC)CCCC)C(=O)C(C)C | 11.8 ± 1.2 | 9.28 ± 0.98 | 7.2 ± 0.76 | 5.33 ± 0.56 | 4.13 ± 0.43 | 3.14 ± 0.33 |
| CC(C)=O [acetone] + CCCCC(CC)CN(CC(CC)CCCC)C(=O)C(C)C | 0.901 ± 0.092 | 0.745 ± 0.077 | 0.596 ± 0.064 | 0.465 ± 0.052 | 0.375 ± 0.045 | 0.294 ± 0.039 |

Continued, values first:

| activity coefficient (323.15 K) | activity coefficient (333.15 K) | activity coefficient (343.15 K) | activity coefficient (353.15 K) | activity coefficient (363.15 K) | activity coefficient (373.15 K) | SMILES |
| --- | --- | --- | --- | --- | --- | --- |
| 1.15 ± 0.12 | 0.966 ± 0.098 | 0.746 ± 0.077 | 0.586 ± 0.063 | 0.463 ± 0.052 | 0.372 ± 0.044 | ClC(Cl)Cl [trichloromethane] + CCCCC(CC)CN(CC(CC)CCCC)C(=O)C(C)C |
| 0.608 ± 0.065 | 0.506 ± 0.056 | 0.41 ± 0.048 | 0.339 ± 0.042 | 0.273 ± 0.037 | 0.225 ± 0.034 | ClCCl [dichloromethane] + CCCCC(CC)CN(CC(CC)CCCC)C(=O)C(C)C |
| 4.26 ± 0.45 | 3.33 ± 0.35 | 2.6 ± 0.27 | 2.09 ± 0.22 | 1.74 ± 0.18 | 1.29 ± 0.13 | CC(C)CC(C)(C)C [2,2,4-trimethylpentane] + CCCCC(CC)CN(CC(CC)CCCC)C(=O)C(C)C |
| 1.11 ± 0.11 | 0.938 ± 0.096 | 0.768 ± 0.079 | 0.639 ± 0.067 | 0.525 ± 0.057 | 0.428 ± 0.049 | CCCC(C)C [2-methylpentane] + CCCCC(CC)CN(CC(CC)CCCC)C(=O)C(C)C |
| 1.43 ± 0.15 | 1.22 ± 0.12 | 0.985 ± 0.1 | 0.87 ± 0.089 | 0.7 ± 0.073 | 0.566 ± 0.061 | CCOC(C)=O [ethyl acetate] + CCCCC(CC)CN(CC(CC)CCCC)C(=O)C(C)C |
| 24.3 ± 2.6 | 19.4 ± 2 | 16.8 ± 1.8 | 14 ± 1.5 | 11.1 ± 1.2 | 9.87 ± 1 | C=CCCCCCCCC [1-decene] + CCCCC(CC)CN(CC(CC)CCCC)C(=O)C(C)C |
| 1.91 ± 0.2 | 1.53 ± 0.16 | 1.26 ± 0.13 | 1.02 ± 0.1 | 0.845 ± 0.087 | 0.717 ± 0.075 | CCCCCC [hexane] + CCCCC(CC)CN(CC(CC)CCCC)C(=O)C(C)C |
| 17.8 ± 1.9 | 14.7 ± 1.6 | 11.5 ± 1.2 | 9.18 ± 0.97 | 7.33 ± 0.77 | 5.72 ± 0.6 | CCCc1ccccc1 [propylbenzene] + CCCCC(CC)CN(CC(CC)CCCC)C(=O)C(C)C |
| 18.5 ± 1.9 | 16 ± 1.7 | 13.7 ± 1.4 | 11.8 ± 1.2 | 9.8 ± 1 | 8.67 ± 0.91 | CCCCCCCCC [nonane] + CCCCC(CC)CN(CC(CC)CCCC)C(=O)C(C)C |
| 0.795 ± 0.082 | 0.676 ± 0.071 | 0.544 ± 0.059 | 0.457 ± 0.051 | 0.382 ± 0.045 | 0.324 ± 0.041 | CCCCC [pentane] + CCCCC(CC)CN(CC(CC)CCCC)C(=O)C(C)C |
| 39.2 ± 4.1 | 35.9 ± 3.8 | 31.5 ± 3.3 | 27.5 ± 2.9 | 25.5 ± 2.7 | 22.7 ± 2.4 | CCCCCCCCCCC [undecane] + CCCCC(CC)CN(CC(CC)CCCC)C(=O)C(C)C |
| 11.3 ± 1.2 | 8.75 ± 0.92 | 6.78 ± 0.71 | 4.96 ± 0.52 | 3.9 ± 0.41 | 2.88 ± 0.3 | CCc1ccccc1 [ethylbenzene] + CCCCC(CC)CN(CC(CC)CCCC)C(=O)C(C)C |
